Assay [1] is described as follows: DRUGMATRIX: Platelet-Derived Growth Factor (PDGF) radioligand binding (ligand: [125I] PDGF). To be noted: nih3t3; Not Active = under 50% inhibition at 10 µM. The assay is classed as cell-based.
The target in the next assay is Acetylcholinesterase (Homo sapiens, UniProt P22303). The assay is described as follows: DRUGMATRIX: Acetylcholinesterase enzyme inhibition (substrate: acetylthiocholine). The assay is classed as cell-based, HEK293. To be noted: hek293; Not Active = under 50% inhibition at 10 µM.
Sequence of Acetylcholinesterase (P22303 whole entry): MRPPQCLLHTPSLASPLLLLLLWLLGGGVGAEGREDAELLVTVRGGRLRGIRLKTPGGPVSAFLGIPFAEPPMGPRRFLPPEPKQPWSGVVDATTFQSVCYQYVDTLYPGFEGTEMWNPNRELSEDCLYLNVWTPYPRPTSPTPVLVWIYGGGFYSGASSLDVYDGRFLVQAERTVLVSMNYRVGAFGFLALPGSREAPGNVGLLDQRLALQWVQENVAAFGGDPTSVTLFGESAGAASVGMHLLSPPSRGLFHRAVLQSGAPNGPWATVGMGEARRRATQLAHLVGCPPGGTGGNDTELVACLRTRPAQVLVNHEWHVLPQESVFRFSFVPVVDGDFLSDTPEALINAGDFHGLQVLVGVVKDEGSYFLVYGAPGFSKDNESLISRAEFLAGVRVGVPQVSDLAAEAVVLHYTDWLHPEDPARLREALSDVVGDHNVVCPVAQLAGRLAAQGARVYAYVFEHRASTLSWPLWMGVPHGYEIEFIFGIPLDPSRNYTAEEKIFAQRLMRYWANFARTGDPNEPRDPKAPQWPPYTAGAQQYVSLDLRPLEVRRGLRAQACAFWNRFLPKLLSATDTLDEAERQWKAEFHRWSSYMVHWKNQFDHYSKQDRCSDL
Assay [2] is described as follows: DRUGMATRIX: ATPase, Na+/K+ enzyme inhibition (substrate: ATP). The following applies: Not Active = under 50% inhibition at 10 µM. The assay is classed as tissue-based, Sus scrofa, Heart.
Another assay deals with Melanocortin receptor 5 (Homo sapiens, UniProt P33032). It counts as cell membranes, HEK293, Membrane. To be noted: hek293.
Sequence of Melanocortin receptor 5 (P33032 whole entry): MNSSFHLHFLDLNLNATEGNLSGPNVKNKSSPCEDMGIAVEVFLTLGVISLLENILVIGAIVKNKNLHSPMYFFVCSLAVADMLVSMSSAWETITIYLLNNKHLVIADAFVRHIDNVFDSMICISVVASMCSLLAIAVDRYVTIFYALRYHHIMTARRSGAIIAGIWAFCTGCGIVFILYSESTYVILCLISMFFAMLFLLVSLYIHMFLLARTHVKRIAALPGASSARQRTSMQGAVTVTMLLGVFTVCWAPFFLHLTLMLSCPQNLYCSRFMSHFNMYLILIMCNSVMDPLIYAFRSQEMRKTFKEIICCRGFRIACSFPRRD
A short description of assay [3]: DRUGMATRIX: Interleukin IL-1 radioligand binding (ligand: [125I] interleukin 1beta). The assay is classed as cell membranes, Membrane. The following applies: nih3t3; Not Active = under 50% inhibition at 10 µM.
In assay [4] the target is T1, Alpha-1D adrenergic receptor (Homo sapiens, UniProt P25100). Further: in other assays of this panel Not Active means under 50% inhibition at 10 µM.
T1 sequence (P25100 whole entry): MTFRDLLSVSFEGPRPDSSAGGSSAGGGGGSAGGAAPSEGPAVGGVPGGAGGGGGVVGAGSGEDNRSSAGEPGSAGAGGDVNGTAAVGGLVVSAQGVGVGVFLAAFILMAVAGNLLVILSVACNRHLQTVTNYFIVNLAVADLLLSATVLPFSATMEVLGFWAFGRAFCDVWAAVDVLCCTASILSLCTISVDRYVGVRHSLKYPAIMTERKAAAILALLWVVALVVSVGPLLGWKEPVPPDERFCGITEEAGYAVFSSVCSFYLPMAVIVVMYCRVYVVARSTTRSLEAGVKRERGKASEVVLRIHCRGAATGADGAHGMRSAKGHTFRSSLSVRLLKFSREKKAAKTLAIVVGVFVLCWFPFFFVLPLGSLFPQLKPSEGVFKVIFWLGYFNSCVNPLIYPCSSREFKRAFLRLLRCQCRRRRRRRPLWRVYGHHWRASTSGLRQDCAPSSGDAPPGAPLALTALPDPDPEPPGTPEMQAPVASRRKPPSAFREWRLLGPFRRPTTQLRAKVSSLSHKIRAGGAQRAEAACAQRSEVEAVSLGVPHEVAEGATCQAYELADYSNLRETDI
The assay is classed as cell membranes, HEK293, Membrane.

Assay [5] is described as follows: DRUGMATRIX: Glutamate, NMDA, Agonism radioligand binding (ligand: [3H] CGP-39653). It counts as cell membranes, Rattus norvegicus, Wistar, Cerebral cortex, Membrane. The following applies: Not Active = under 50% inhibition at 10 µM.

SMILES strings stand for the structures.

One may read the IC50 as the concentration that inhibits the measured activity by half. A word on the Ki: it is a measure of affinity in units of concentration, obtained from inhibition or displacement.

As for `CC(=O)OCC(=O)[C@@]1(O)CC[C@H]2[C@@H]3CCC4=CC(=O)CC[C@]4(C)[C@@]3(F)[C@@H](O)C[C@@]21C` [FLUDROCORTISONE ACETATE], the IC50 result (in assay [1]; on Acetylcholinesterase; in assay [2]; against Melanocortin receptor 5; in assay [3]; in assay [4] (hek293)) was “Not Active” each time. In addition, in assay [5], the IC50 entry is on record as “Not Active”. Also, the Ki entry in assay [1], in assay [2], in assay [3] and in assay [5] was “Not Active” throughout.
Consider `CCOC(=O)c1ncn2c1CN(C)C(=O)c1cc(F)ccc1-2` [FLUMAZENIL], for which the IC50 entry (in assay [1]; against Acetylcholinesterase; in assay [2]; against Melanocortin receptor 5; in assay [3]; in assay [4] (hek293)) was “Not Active” throughout. In addition, the IC50 result in assay [5] was “Not Active”. Besides, the Ki entry in assay [1], in assay [2], in assay [3] and in assay [5] was “Not Active” in each case.
`CC(=O)OCC(=O)[C@@]12OC(C)(C)O[C@@H]1C[C@H]1[C@@H]3C[C@H](F)C4=CC(=O)C=C[C@]4(C)[C@@]3(F)[C@@H](O)C[C@@]12C` [FLUOCINONIDE]: the IC50 entry (in assay [1]; against Acetylcholinesterase; in assay [2]; against Melanocortin receptor 5; in assay [3]; in assay [4] (hek293)) was “Not Active” in each case. Also, the IC50 result in assay [5] is “Not Active”. Also, the Ki entry in assay [1], in assay [2], in assay [3] and in assay [5] was “Not Active” in each case.
Take `O=C(O)P(=O)(O)O` [FOSCARNET]: the IC50 entry (in assay [1]; against Acetylcholinesterase; in assay [2]; on Melanocortin receptor 5; in assay [3]; in assay [4] (hek293)) was “Not Active” each time. In addition, the IC50 entry in assay [5] is recorded as “Not Active”. The Ki result in assay [1], in assay [2], in assay [3] and in assay [5] was “Not Active” throughout.
Consider `Cc1ccc(C)c(OCCCC(C)(C)C(=O)O)c1` [GEMFIBROZIL], for which the IC50 result (in assay [1]; against Acetylcholinesterase; in assay [2]; against Melanocortin receptor 5; in assay [3]; in assay [4] (hek293)) was “Not Active” throughout. For the same molecule, the IC50 result in assay [5] is reported as “Not Active”. For the same molecule, the Ki entry in assay [1], in assay [2], in assay [3] and in assay [5] was “Not Active” in each case.
Turning to `O=c1c(-c2ccc(O)cc2)coc2cc(O)cc(O)c12` [GENISTEIN], the IC50 entry (in assay [1]; at Acetylcholinesterase; in assay [2]; at Melanocortin receptor 5; in assay [3]; in assay [4] (hek293)) was “Not Active” throughout. The IC50 entry in assay [5] is listed as “Not Active”. Besides, the Ki entry in assay [1], in assay [2], in assay [3] and in assay [5] was “Not Active” throughout.
Turning to `CCC1=C(C)CN(C(=O)NCCc2ccc(S(=O)(=O)NC(=O)N[C@H]3CC[C@H](C)CC3)cc2)C1=O` [GLIMEPIRIDE], the IC50 result (in assay [1]; on Acetylcholinesterase; in assay [2]; against Melanocortin receptor 5; in assay [3]; in assay [4] (hek293)) was “Not Active” each time. Besides, the IC50 result in assay [5] is on record as “Not Active”. Also, the Ki result in assay [1], in assay [2], in assay [3] and in assay [5] was “Not Active” each time.
Take `Nc1cc(-c2ccncc2)c[nH]c1=O` [INAMRINONE]: the IC50 result (in assay [1]; at Acetylcholinesterase; in assay [2]; at Melanocortin receptor 5; in assay [3]; in assay [4] (hek293)) was “Not Active” each time. The IC50 entry in assay [5] was “Not Active”. In addition, the Ki result in assay [1], in assay [2], in assay [3] and in assay [5] was “Not Active” in each case.
Consider `CCCCC1=NC2(CCCC2)C(=O)N1Cc1ccc(-c2ccccc2-c2nnn[nH]2)cc1` [IRBESARTAN], for which the IC50 result (in assay [1]; at Acetylcholinesterase; in assay [2]; against Melanocortin receptor 5; in assay [3]; in assay [4] (hek293)) was “Not Active” each time. In addition, the IC50 result in assay [5] is reported as “Not Active”. Moreover, the Ki entry in assay [1], in assay [2], in assay [3] and in assay [5] was “Not Active” each time.
For `CN1CCC(=C2c3ccccc3CC(=O)c3sccc32)CC1` [KETOTIFEN], the IC50 entry in assay [1] is “Not Active”; against Acetylcholinesterase it was “Not Active”; in assay [2] it was “Not Active”; on Melanocortin receptor 5, “Not Active”; in assay [3], “Not Active”; in assay [4] (read-out: IC50), 3730 nM. For the same molecule, in assay [5], the half-maximal inhibitory concentration (IC50) result was “Not Active”. The Ki result was “Not Active” in assay [1]; “Not Active” in assay [2]; “Not Active” in assay [3]; 1830 nM in assay [4] (read-out: Ki); “Not Active” in assay [5].
As for `N[C@@H](Cn1ccc(=O)c(O)c1)C(=O)O` [L-MIMOSINE], the IC50 entry (in assay [1]; against Acetylcholinesterase; in assay [2]; on Melanocortin receptor 5; in assay [3]; in assay [4] (hek293)) was “Not Active” in each case. In addition, the IC50 entry in assay [5] is on record as “Not Active”. Further, the Ki result in assay [1], in assay [2], in assay [3] and in assay [5] was “Not Active” each time.
On to `C[N+](C)(C)C[C@H](O)CC(=O)[O-]` [LEVOCARNITINE], for which the IC50 entry (in assay [1]; on Acetylcholinesterase; in assay [2]; on Melanocortin receptor 5; in assay [3]; in assay [4] (hek293)) was “Not Active” throughout. The IC50 result in assay [5] is given as “Not Active”. In addition, the Ki entry in assay [1], in assay [2], in assay [3] and in assay [5] was “Not Active” each time.
As for `C[C@H]1COc2c(N3CCN(C)CC3)c(F)cc3c(=O)c(C(=O)O)cn1c23.C[C@H]1COc2c(N3CCN(C)CC3)c(F)cc3c(=O)c(C(=O)O)cn1c23.O` [LEVOFLOXACIN], the IC50 entry (in assay [1]; at Acetylcholinesterase; in assay [2]; on Melanocortin receptor 5; in assay [3]; in assay [4] (hek293)) was “Not Active” in each case. In assay [5], the IC50 entry is reported as “Not Active”. The Ki result in assay [1], in assay [2], in assay [3] and in assay [5] was “Not Active” in each case.
With `CCn1cc(C(=O)O)c(=O)c2cc(F)c(N3CCNC(C)C3)c(F)c21` (stereo not drawn) [LOMEFLOXACIN], the IC50 entry (in assay [1]; against Acetylcholinesterase; in assay [2]; against Melanocortin receptor 5; in assay [3]; in assay [4] (hek293)) was “Not Active” throughout. Moreover, the IC50 entry in assay [5] is on record as “Not Active”. For the same molecule, the Ki entry in assay [1], in assay [2], in assay [3] and in assay [5] was “Not Active” throughout.
As to `Cc1cccc(C)c1NC(=O)C1CCCCN1C` (stereo not drawn) [MEPIVACAINE], the IC50 result (in assay [1]; on Acetylcholinesterase; in assay [2]; against Melanocortin receptor 5; in assay [3]; in assay [4] (hek293)) was “Not Active” throughout. The concentration for half-maximal inhibition (IC50) result in assay [5] is “Not Active”. Also, the Ki entry in assay [1], in assay [2], in assay [3] and in assay [5] was “Not Active” in each case.
Regarding `CN(C)C(=N)NC(=N)N` [METFORMIN], the IC50 entry (in assay [1]; at Acetylcholinesterase; in assay [2]; against Melanocortin receptor 5; in assay [3]; in assay [4] (hek293)) was “Not Active” throughout. Also, in assay [5], the IC50 entry is “Not Active”. The Ki entry in assay [1], in assay [2], in assay [3] and in assay [5] was “Not Active” each time.
As for `CC(C)(C)NCC(O)COc1cccc2c1CC(O)C(O)C2` (stereo not drawn) [NADOLOL], the IC50 entry (in assay [1]; against Acetylcholinesterase; in assay [2]; against Melanocortin receptor 5; in assay [3]; in assay [4] (hek293)) was “Not Active” throughout. Also, the IC50 entry in assay [5] is listed as “Not Active”. For the same molecule, the Ki result in assay [1], in assay [2], in assay [3] and in assay [5] was “Not Active” in each case.

These data come from ChEMBL document CHEMBL1909046, “DrugMatrix in vitro pharmacology data”.
